Measured values published in US20230027198A1 (The Rockefeller University, priority 2019, published 2023).

Tests used:
[1] = system: tumor; conditions: preclinical studies in mice; cited from earlier work
[2] = target: T1, ENL YEATS domain (6×HIS ENL YEATS Domain) binding to H3K9cr peptide (Homo sapiens, UniProt Q03111); test: TR-FRET ENL Screening Assay, FRET Assay Protocol 1; conditions: H3K9cr peptide (aa1-20)
T1 construct: aa1-150; EpiCypher, 15-0069; purchased EpiCypher 15-0069
T1 sequence (Q03111 1-150): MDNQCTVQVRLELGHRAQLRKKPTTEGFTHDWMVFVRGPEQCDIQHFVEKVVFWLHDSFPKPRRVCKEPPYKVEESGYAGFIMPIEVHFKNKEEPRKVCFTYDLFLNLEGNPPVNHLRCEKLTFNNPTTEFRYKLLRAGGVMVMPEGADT

[3] = system: MV4-11 cells; test: Cell viability assay (CellTiter-Glo), 12 days; assay type: cell-based; conditions: Homo sapiens, readouts on days 4, 8 and 12, day not given
Procedure: Cell-based assays were used to assess the ability of test compounds to reduce cell viability in both MV4:11 (MLL-AF4 MLL) and K562 cells, which were cultured in Iscove's Modified Dulbecco's medium (Gibco, 12440061) containing […]. The assays were conducted over 12 days and the cells being split on days 4 and 8. Compound concentration response curves were performed in duplicate over the concentration range of 0.15 nM-30 uM. On day 0, the compounds or vehicle were plated in a 300 nL directly into 96 well cell culture plates (Corning, 3599) with 5000 cells/well in a volume of 100 uL. Blank wells received cell culture medium. Plates were incubated for 4 days at 37° C. with 5% CO2. On days 4 and day 8 the cells were split and incubated for a further 4 days whilst an aliquot of cells were taken for the CTG readout. For the cell splitting, 270 nL of compounds or DMSO was added to a new 96 well cell culture plate to which 90 uL of medium plus 10 uL of cells from the original assay plate (after mixing) or 100 uL of medium (Blank wells) was added. This was repeated on day 8.
Cell viability was assessed using the CellTiter-Glo® homogeneous luminescent assay kit (Promega, G9243), according to the manufacturer's instructions. This quantifies ATP, which indicates the presence of metabolically active cells. On days 4, 8 and 12, 20 ul of the remaining cell suspension was aspirated into 384-well plate (Corning 3570) to which an equal volume CellTiter-Glo reagent was. Plates were incubated for 10 minute incubation at RT prior to recording the luminescence signal using EnVision plate reader (PE, 2104). The resulting data were analyzed as follows:
Inhibition (%)=100%×(Lumvehicie−Lumsample)/(Lumvehicle−Lumblank)
where vehicle are cells treated with 0.3% DMSO, Blank is culture medium. IC50 determinations were calculated by fitting the curve using XLfit (v5.3.1.3): Y=Bottom+(Top−Bottom)/(1+10^((Log IC50−X)*HillSlope)).

[4] = system: myeloma tumors; leukemic engraftment of patient-derived primary samples; conditions: mice, cited from earlier work
[5] = system: BET family of bromodomain proteins; conditions: cited from earlier work
[6] = system: acute myeloid leukemia; conditions: cited from earlier work

CCn1nc(C2CC2)cc1Nc1nc(C(=O)NCCCOCCOCCOCCCNc2cccc3c2C(=O)N(C2CCC(=O)NC2=O)C3=O)nc2[nH]c3cc(-c4c(C)noc4C)c(OC)cc3c12 (centres unmarked) [BET-d246]
anti-tumor activity [1]: strong anti-tumor activity

Cn1ncc2ccc(C(=O)Nc3cc4[nH]c(CN5CC6(CCOCC6)C5)cc4cn3)cc21 [Example 104]
IC50 [2]: 210 nM | IC50 [3]: 0.22 µM

COc1cc2c(cc1-c1c(C)noc1C)ncc1[nH]c(=O)n([C@H](C)c3ccccn3)c12 [I-BET 151]
leukemic engraftment and disease burden ([4]; in vivo, patient-derived primary samples): impairs the leukemic engraftment of patient-derived primary samples and lowers the disease burden | effect on myeloma tumors [4]: reduced myeloma tumors

Cc1sc2c(c1C)C(c1ccc(Cl)cc1)=N[C@@H](CC(=O)OC(C)(C)C)c1nnc(C)n1-2 [JQ1]
inhibition of BET bromodomain proteins [5]: potent inhibitor

CCS(=O)(=O)Nc1ccc(Oc2ccc(F)cc2F)c(-c2cn(C)c(=O)c3[nH]ccc23)c1 [Mivebresib]
antileukemic effects ([6]; patients with relapsed and refractory AML): showed antileukemic effects | tolerability ([6]; phase 1 study, patients with solid tumors and AML): well tolerated
